Results as given in patent US20070117868A1, “Use of n-arylhydrazine derivatives for combating non-crop pests” (priority 2004, published 2007).

Legend:
Type in all cases: in vivo
[1] = tested on: Sarcophaga sp.; assay: Activity via glass contact, flesh fly; details: rate 10 ppm
Description: (§1) 1. Activity Against Argentine Ant, Harvester Ant, Acrobat Ant, Carpenter Ant, Fire Ant, House Fly, Stable Fly, Flesh Fly, Yellowfever Mosquito, House Mosquito, Malaria Mosquito, German Cockroach, Cat Flea, and Brown Dog Tick Via Glass Contact
(§2) Glass vials (20 ml scintillation vials) were treated with 0.5 ml of a solution of active ingredient in acetone. Each vial was rolled uncapped for ca. 10 minutes to allow the a.i. to completely coat the vial and to allow for full drying of the acetone. Insects or ticks were placed into each vial.

[2] = tested on: Anopheles albimanus; assay: Activity via glass contact, malaria mosquito; details: rate 1 ppm
Description: as §1, §2

[3] = tested on: Stomoxys calcitrans; assay: Activity via glass contact, stable fly; details: rate 10 ppm
Description: as §1, §2

[4] = tested on: Solenopsis invicta; assay: Activity via glass contact, fire ant; details: rate 10 ppm
Description: as §1, §2

[5] = tested on: Camponotus floridanus; assay: Activity via glass contact, carpenter ant; details: rate 10 ppm
Description: as §1, §2

[6] = tested on: Aedes aegypti; assay: Activity via water treatment, yellowfever mosquito larvae; details: rate 10 ppm
Description: (§3) 4. Activity Against Yellowfever Mosquito, Southern House Mosquito, and Malaria Mosquito Larvae Via Water Treatment
(§4) Well plates were used as test arenas. The active ingredient was dissolved in acetone and diluted with water to obtain the concentrations needed. The final solutions containing appr. 1% acetone were placed into each well. Approximately 10 mosquito larvae (4th-instars) in 1 ml water were added to each well. Larvae were fed one drop of liver powder each day. The dishes were covered and maintained at 22° C. Mortality was recorded daily and dead larvae and live or dead pupae were removed daily. At the end of the test remaining live larvae were recorded and percent mortality was calculated.

[7] = tested on: Anopheles albimanus; assay: Activity via water treatment, malaria mosquito larvae; details: rate 1.0 ppm
Description: as §3, §4

[8] = tested on: Camponotus floridanus; assay: Activity via soil contact, carpenter ant; details: rate 0.01 w %
Description: (§5) 2. Activity Against Argentine Ant, Acrobat Ant, Carpenter Ant, Fire Ant, and Eastern Subterranean Termite Via Soil Contact
(§6) For ants, tests were conducted in Petri dishes. A thin layer of 1% agar in water was dispensed into the dishes and Florida sandy soil was spread over the agar (5 g for the small dishes and 11 g for the larger dishes). The active ingredient was dissolved in acetone and dispensed over the sand. Dishes were vented to evaporate the acetone, infested with ants, and covered. A 20% honey water solution was placed in each dish. The dishes were maintained at 22° C. and observed for mortality at various time intervals.

[9] = tested on: Musca domestica; assay: Activity via glass contact, house fly; details: rate 10 ppm
Description: as §1, §2

[10] = tested on: Coptotermes formosanus; assay: Activity via bait (treated filter paper), Formosan termite; details: rate 0.1 w %
Description: (§7) 3. Activity Against Argentine Ant, Acrobat Ant, Carpenter Ant, Fire Ant, House Fly, Eastern Subterranean Termite, Formosan Subterranean Termite, and German Cockroach Via Bait
For termites, active ingredient in acetone was applied to filter papers. % a.i. were calculated on basis of the weight of the filter paper. Acetone only was applied for untreated controls. Treated papers were vented to evaporate the acetone, moistened with […], and placed Petri dishes with sand. Water was added during the test as needed. Bioassays were conducted with one treated filter and ca. 30 termite workers per test dish. Test dishes were maintained at 25° C. and appr. 85% relative humidity and observed daily for mortality (dead or moribund insects) or intoxication. Dead or moribund insects were removed daily.

[11] = tested on: Culex quinquefasciatus; assay: Activity via water treatment, house mosquito larvae; details: rate 10 ppm
Description: as §3, §4

[12] = tested on: Aedes aegypti; assay: Activity via glass contact, yellowfever mosquito; details: rate 10 ppm
Description: as §1, §2

[13] = tested on: Crematogaster spp.; assay: Activity via soil contact, acrobat ant; details: rate 0.01 w %
Description: as §5, §6

[14] = tested on: Solenopsis invicta; assay: Activity via soil contact, fire ant; details: rate 0.01 w %
Description: as §5, §6

[15] = tested on: Culex quinquefasciatus; assay: Activity via glass contact, house mosquito; details: rate 0.5 ppm
Description: as §1, §2

[16] = tested on: Ctenocephalides felis; assay: Activity via glass contact, cat flea; details: rate 100 ppm
Description: as §1, §2

[17] = tested on: Musca domestica; assay: Activity via bait, house fly; details: rate 0.1 w %
Description: as §7
For house flies. Bait tests were conducted with adults aged 2-5 days post-emergence. Active ingredient in acetone was applied to a bait matrix consisting of a 1:1 mixture of powdered milk and sugar which was then allowed to dry. Assays were conducted in jars with 250 mg of bait in a pan placed in the bottom of each jar. House flies were placed into the bait jars which were covered. The test jars were held at 22° C.

[18] = tested on: Solenopsis invicta; assay: Activity via bait (corn grit), fire ant; details: rate 0.7 w %
Description: as §7
For the fire ants, corn grit was used as a bait matrix. […] Petri dishes were supplied with a water source. Fire ant adults were placed into each dish. The next day, 250 mg of bait in bait containers was placed into the dishes.

| SMILES | Days or Hours to achieve 100% mortality [1] | Days or Hours to achieve 100% mortality [2] | Days or Hours to achieve 100% mortality [3] | Days or Hours to achieve 100% mortality [4] | Days or Hours to achieve 100% mortality [5] | Days or Hours to achieve 100% mortality [6] | Days or Hours to achieve 100% mortality [7] | Days or Hours to achieve 100% mortality [8] | Days or Hours to achieve 100% mortality [9] | Days or Hours to achieve 100% mortality [10] | Days or Hours to achieve 100% mortality [11] | Days or Hours to achieve 100% mortality [12] | Days or Hours to achieve 100% mortality [13] | Days or Hours to achieve 100% mortality [14] | Days or Hours to achieve 100% mortality [15] | Days or Hours to achieve 100% mortality [16] | Days or Hours to achieve 100% mortality [17] | Days or Hours to achieve 100% mortality [18] |
| --- | --- | --- | --- | --- | --- | --- | --- | --- | --- | --- | --- | --- | --- | --- | --- | --- | --- | --- |
| CCN/C(=N\Nc1c(Cl)cc(C(F)(F)F)cc1Cl)C(C)(C)C [Compound I-1, N-ethyl-2,2-dimethylpropionamide-2-(2,6-dichloro-α,α,α-trifluoro-p-tolyl)-hydrazone] | 4 h | 1 days | 4 h | 4 h | 1 days | 2 days | 1 days | 1 days | 4 h | 5 days | 1 days | 4 h | 2 days | 1 days | 4 h | 2 days | 3 h | 3 days |
| CCN/C(=N\Nc1c(Cl)cc(C(F)(F)F)cc1Cl)C1(C)CC1(Cl)Cl (stereo not drawn) [Compound I-2, N-Ethyl-2,2-dichloro-1-methylcyclopropanecarboxamide-2-(2,6-dichloro-α,α,α-tri-fluoro-p-tolyl)hydrazone] | 4 h | 1 days | 4 h | 4 h | 1 days | 2 days | 1 days | 1 days | 4 h | 5 days | 1 days | 4 h | 2 days | 1 days | 4 h | 2 days | 3 h | 3 days |
